Assay results from US12503475B2 (Centessa Pharmaceuticals (UK) Limited, priority 2020, dated 2025).

Target: T1, human orexin type 2 receptor (hOX2R) (Homo sapiens, UniProt O43614)
T1 construct: expressed in transfected cells
T1 sequence (O43614 1-444): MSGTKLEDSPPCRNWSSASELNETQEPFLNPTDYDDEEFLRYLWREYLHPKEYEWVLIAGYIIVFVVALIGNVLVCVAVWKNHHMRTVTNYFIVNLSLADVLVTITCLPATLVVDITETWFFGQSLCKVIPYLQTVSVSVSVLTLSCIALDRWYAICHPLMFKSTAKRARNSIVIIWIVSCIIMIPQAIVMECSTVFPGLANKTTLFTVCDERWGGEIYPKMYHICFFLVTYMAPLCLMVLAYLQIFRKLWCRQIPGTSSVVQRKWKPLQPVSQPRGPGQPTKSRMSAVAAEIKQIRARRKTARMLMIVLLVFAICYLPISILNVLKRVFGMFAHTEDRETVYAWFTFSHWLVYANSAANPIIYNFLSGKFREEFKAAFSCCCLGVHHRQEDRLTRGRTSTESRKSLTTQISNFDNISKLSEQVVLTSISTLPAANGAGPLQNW
Experiment: Measurement of orexin type 2 receptor agonist activity (FLIPR calcium fluorescence)
Type: cell-based
Settings: CHO cells expressing hOX2R, FLIPR calcium fluorescence; for EC50: read-out: hOx2 pEC50 (converted); for Emax: CHO, read-out: hOx2 Emax (%)
Protocol: The biological activity of the compounds of the present disclosure may be determined in cells stably expressing either orexin type 2 or orexin type 1 receptor. […] The agonist activity of a compound of the present disclosure may be determined by fluorescence value.
Stable cell line generation.
Measurement of orexin type 2 receptor agonist activity. […] As used herein, E. indicates the value at 10 μM concentration when orexin A is converted to a full agonist (maximum value of agonist activity. 100%).

| Compound | EC50 [nM] | Emax [%] | hOx2 Emax (%) | hOx2 pEC50 |
| --- | --- | --- | --- | --- |
| [2H]c1c([2H])c([2H])c(-c2cc(F)cc(C[C@H]3[C@@H](NS(C)(=O)=O)C4(CC4)CN3C(=O)[C@H]3CCO3)c2F)c([2H])c1[2H] [Compound 348, N-((6S,7S)-6-((2,5-difluoro-[1,1′-biphenyl]-3-yl-2′,3′,4′,5′,6′-d5)methyl)-5-((R)-oxetane-2-carbonyl)-5-azaspiro[2.4]heptan-7-yl)methanesulfonamide] | 1 to 10 | 90 to 100 | – | – |
| CS(=O)(=O)N[C@@H]1[C@H](Cc2cccc(-c3ccccc3)c2)N(C(=O)C23CC2C3)CC12CC2 (stereo partly drawn) [Compound 113, N-((6S,7S)-6-([1,1′-biphenyl]-3-ylmethyl)-5-(bicyclo[1.1.0]butane-1-carbonyl)-5-azaspiro[2.4]heptan-7-yl)methanesulfonamide] | 1 to 10 | 90 to 100 | – | – |
| O=C(NCC(F)(F)F)N1CC2(CC2)[C@H](NS(=O)(=O)CF)[C@@H]1Cc1cc(F)cc(-c2ccccc2)c1F [Compound 208, (6S,7S)-6-((2,5-difluoro-[1,1′-biphenyl]-3-yl)methyl)-7-((fluoromethyl)sulfonamido)-N-(2,2,2-trifluoroethyl)-5-azaspiro[2.4]heptane-5-carboxamide] | 0.0794 to 1 | 90 to 100 | – | – |
| N-((6S,7S)-6-((2-fluoro-[1,1′- biphenyl]-3-yl)methyl)-5-((R)- 2-(fluoromethyl)azetidine-1- carbonyl)-5- azaspiro[2.4]heptan-7- yl)metbanesulfonamide [Compound 314] | – | – | A (Emax ranging between 90 and 100) | **** (pEC50 ranging between 8.0 and 9.0) |
| CS(=O)(=O)N[C@H]1[C@@H](Cc2cccc(-c3cccc(F)c3)c2F)N(C(=O)N2CCC2)CC12CC2 [Compound 26, N-((6R,7R)-5-(azetidine-1-carbonyl)-6-((2,3′-difluoro-[1,1′-biphenyl]-3-yl)methyl)-5-azaspiro[2.4]heptan-7-yl)methanesulfonamide] | 10 to 100 | 90 to 100 | – | – |
| CN(C)S(=O)(=O)N[C@@H]1[C@H](Cc2cccc(-c3ccccc3)c2F)N(C(=O)C2(O)CCC2)CC12CC2 [Compound 120, N-((6S,7S)-6-((2-fluoro-[1,1′-biphenyl]-3-yl)methyl)-5-(1-hydroxycyclobutane-1-carbonyl)-5-azaspiro[2.4]heptan-7-yl)-N,N-dimethylsulfuric diamide] | 0.0794 to 1 | 90 to 100 | – | – |
| N#C[C@]1(C(=O)N2CC3(CC3)[C@H](NS(=O)(=O)CF)[C@@H]2Cc2cccc(-c3ccccc3)c2F)CCO1 [Compound 226, N-((6S,7S)-5-((S)-2-cyanooxetane-2-carbonyl)-6-((2-fluoro-[1,1′-biphenyl]-3-yl)methyl)-5-azaspiro[2.4]heptan-7-yl)-1-fluoromethanesulfonamide] | 1 to 10 | 90 to 100 | – | – |
| O=C([C@H]1CCO1)N1CC2(CC2)[C@H](NS(=O)(=O)CF)[C@@H]1Cc1cccc(-c2cccc(C(F)F)c2)c1F [Compound 196, N-((6S,7S)-6-((3′-(difluoromethyl)-2-fluoro-[1,1′-biphenyl]-3-yl)methyl)-5-((R)-oxetane-2-carbonyl)-5-azaspiro[2.4]heptan-7-yl)-1-fluoromethanesulfonamide] | 0.0794 to 1 | 90 to 100 | – | – |
| CS(=O)(=O)N[C@@H]1[C@H](Cc2cccc(-c3cc(F)cc(F)c3)c2F)N(C(=O)[C@H]2CCO2)CC12CC2 [Compound 39, N-((6S,7S)-5-((R)-oxetane-2-carbonyl)-6-((2,3′,5′-trifluoro-[1,1′-biphenyl]-3-yl)methyl)-5-azaspiro[2.4]heptan-7-yl)methanesulfonamide] | 1 to 10 | 90 to 100 | – | – |
| CN(C(=O)N1CC2(CC2)[C@H](NS(C)(=O)=O)[C@@H]1Cc1cccc(-c2ccccc2)c1F)[C@H]1CCOC1 [Compound 321, (6S,7S)-6-((2-fluoro-[1,1′-biphenyl]-3-yl)methyl)-N-methyl-7-(methylsulfonamido)-N-((S)-tetrahydrofuran-3-yl)-5-azaspiro[2.4]heptane-5-carboxamide] | 10 to 100 | 90 to 100 | – | – |
| CC(C)(O)C(=O)N1CC2(CC2)[C@H](NS(=O)(=O)CF)[C@@H]1Cc1cccc(-c2ccccc2)c1F [Compound 134, 1-fluoro-N-((6S,7S)-6-((2-fluoro-[1,1′-biphenyl]-3-yl)methyl)-5-(2-hydroxy-2-methylpropanoyl)-5-azaspiro[2.4]heptan-7-yl)methanesulfonamide] | 1 to 10 | 90 to 100 | – | – |
| CS(=O)(=O)NC1C(Cc2cccc(-c3ccccc3)c2F)N(C(=O)N2CCC2)CC12CC2 (racemic) [Compound 18, N-(5-(azetidine-1-carbonyl)-6-((2-fluoro-[1,1′-biphenyl]-3-yl)methyl)-5-azaspiro[2.4]heptan-7-yl)methanesulfonamide] | 1 to 10 | 90 to 100 | – | – |
| C[C@H](CF)NC(=O)N1CC2(CC2)[C@H](NS(C)(=O)=O)[C@@H]1Cc1cccc(-c2ccccc2)c1F [Compound 101, (6S,7S)-6-((2-fluoro-[1,1′-biphenyl]-3-yl)methyl)-N-((R)-1-fluoropropan-2-yl)-7-(methylsulfonamido)-5-azaspiro[2.4]heptane-5-carboxamide] | 0.0794 to 1 | 90 to 100 | – | – |
| CCNC(=O)N1CC2(CC2)[C@H](NS(=O)(=O)N(C)C)[C@@H]1Cc1cccc(-c2ccccc2)c1F [Compound 121] | 0.0794 to 1 | 90 to 100 | – | – |
| CC1(CNC(=O)N2CC3(CC3)[C@H](NS(C)(=O)=O)[C@@H]2Cc2cccc(-c3ccccc3)c2F)COC1 [Compound 322, (6S,7S)-6-((2-fluoro-[1,1′-biphenyl]-3-yl)methyl)-N-((3-methyloxetan-3-yl)methyl)-7-(methylsulfonamido)-5-azaspiro[2.4]heptane-5-carboxamide] | 0.0794 to 1 | 90 to 100 | – | – |
| C[C@@H](F)C(=O)N1CC2(CC2)[C@H](NS(=O)(=O)C(F)F)[C@@H]1Cc1cccc(-c2cc(F)cc(F)c2)c1F [Compound 378, 1,1-difluoro-N-((6S,7S)-5-((R)-2-fluoropropanoyl)-6-((2,3′,5′-trifluoro-[1,1′-biphenyl]-3-yl)methyl)-5-azaspiro[2.4]heptan-7-yl)methanesulfonamide] | 0.0794 to 1 | 90 to 100 | – | – |
| O=C([C@H]1CCO1)N1CC2(CC2)[C@H](NS(=O)(=O)C2CC2)[C@@H]1Cc1cc(F)cc(-c2ccccc2)c1F [Compound 349, N-((6S,7S)-6-((2,5-difluoro-[1,1′-biphenyl]-3-yl)methyl)-5-((R)-oxetane-2-carbonyl)-5-azaspiro[2.4]heptan-7-yl)cyclopropanesulfonamide] | 1 to 10 | 90 to 100 | – | – |
| [2H]C([2H])([2H])c1cccc(-c2cccc(C[C@H]3[C@@H](NS(=O)(=O)CF)C4(CC4)CN3C(=O)[C@H]3CCO3)c2F)c1 [Compound 229, 1-fluoro-N-((6S,7S)-6-((2-fluoro-3′-(methyl-d3)-[1,1′-biphenyl]-3-yl)methyl)-5-((R)-oxetane-2-carbonyl)-5-azaspiro[2.4]heptan-7-yl)methanesulfonamide] | 0.0794 to 1 | 90 to 100 | – | – |
| CS(=O)(=O)NC1C(Cc2cccc(-c3ccccc3)c2)N(C(=O)N2CC(F)C2)CC12CC2 (racemic) [Compound 11, N-(6-([1,1′-biphenyl]-3-ylmethyl)-5-(3-fluoroazetidine-1-carbonyl)-5-azaspiro[2.4]heptan-7-yl)methanesulfonamide] | 10 to 100 | 90 to 100 | – | – |
| O=C(NCC(F)F)N1CC2(CC2)[C@H](NS(=O)(=O)CF)[C@@H]1Cc1cc(F)cc(-c2ccccc2)c1F [Compound 191, (6S,7S)-6-((2,5-difluoro-[1,1′-biphenyl]-3-yl)methyl)-N-(2,2-difluoroethyl)-7-((fluoromethyl)sulfonamido)-5-azaspiro[2.4]heptane-5-carboxamide] | 1 to 10 | 90 to 100 | – | – |
| CN(C)S(=O)(=O)N[C@@H]1[C@H](Cc2cc(F)cc(-c3cccc(F)c3)c2F)N(C(=O)[C@H]2CCO2)CC12CC2 [Compound 124, 1-fluoro-N-((6S,7S)-5-((R)-oxetane-2-carbonyl)-6-((2,3′,5-trifluoro-[1,1′-biphenyl]-3-yl)methyl)-5-azaspiro[2.4]heptan-7-yl)-N,N-dimethylsulfuric diamide] | 0.0794 to 1 | 80 to 90 | – | – |
| CS(=O)(=O)N[C@@H]1[C@H](Cc2cccc(-c3cc(F)cc(F)c3)c2F)N(C(=O)C2CCC2)CC12CC2 [Compound 33, N-((6S,7S)-5-(cyclobutanecarbonyl)-6-((2,3′,5′-trifluoro-[1,1′-biphenyl]-3-yl)methyl)-5-azaspiro[2.4]heptan-7-yl)methanesulfonamide] | 0.0794 to 1 | 90 to 100 | – | – |
| CS(=O)(=O)N[C@@H]1[C@H](Cc2cccc(-c3ccccc3)c2F)N(C(=O)[C@H]2CCO2)CC12CC2 [Compound 21, N-((6S,7S)-6-((2-fluoro-[1,1′-biphenyl]-3-yl)methyl)-5-((R)-oxetane-2-carbonyl)-5-azaspiro[2.4]heptan-7-yl)methanesulfonamide] | 1 to 10 | 90 to 100 | – | – |
